Where a name gives a salt, the structure may show the parent alone.
Biological target: T1, Porcine DPP-IV (Sus scrofa, UniProt P22411)
T1 construct: purchased Sigma-Aldrich Germany
Experiment: Assay of DPP-IV enzyme inhibitory activity (spectrophotometric, Gly-Pro-pNA cleavage)
Format: biochemical
Details: Porcine DPP-IV, Gly-Pro-pNA substrate, 30° C.; mean ± SD of three experiments except compound Nos. 133 & 139; read-out: IC50 (μM) Mean ± SD, inhibitory activity on DPP-IV enzyme activity
Description: Assay of DPP-IV Enzyme Inhibitory Activity.
The assay method is a modified method (as described by Welch et al, 1998) based on spectrophotometric determination of the product formed by penultimate proline cleaving activity of the enzyme.
Assay protocol involves incubation of the enzyme dipeptidyl peptidase IV with the test substance at 30° C. for 30 min followed by addition of this reaction mixture to the substrate Gly-Pro-pNA that was equilibrated at 30° C. for 2 min. The enzyme cleaves the substrate at penultimate proline and releases p-nitroanilide, the optical density of which is measured at 385 nm. The formation of p-nitroanilide will be reduced in the presence of inhibitor. […] The activity of molecule is expressed in terms of % inhibition. At least three different concentrations were tried out for each of the test substances. The percentage inhibitions for each of the concentrations were plotted and an IC50 of the test compound was worked out. The enzyme inhibitory activity of different test compounds were compared based on the IC50 values.
The percentage inhibition % I, is calculated using the formula:
% I=[(1−vi/v0)]*100 where vi and v0 are the Vmax values with and without the test substance, respectively.
Substrate solution: 0.5 mM in 45 mM phosphate buffer
Substrate used: Gly-Pro-p-nitroanilide (Source: Sigma-Aldrich Co. Germany)
3.288 mg substrate in 1 ml 45 mM phosphate buffer was prepared as stock solution. 0.25 ml of this stock solution was diluted to 5 ml to get 0.5 mM substrate solution (90 μl to be added in each well). The stock solution of the substrate was used within three days of preparation.
Enzyme solution: Porcine DPP-IV (Sigma-Aldrich Germany) was used throughout the study. 0.4 mU in 80 μl of Tris. HCl buffer was prepared. Fresh solutions were prepared everyday for the assays.
Various concentrations of inhibitor were used: 0.391 μM, 0.781 μM, and 3.125 μM. Solutions of inhibitor were prepared and used on the same day.
280 μl of enzyme solution (0.4-mU/80 μl in Tris HCl buffer) was added to the eppendorf containing 70 μl solution of inhibitor or vehicle and mixed. This reaction mixture was incubated for 30 min at 30° C. The 96 well plate containing substrate solution was thermally equilibrated in the spectrophotometer for 2 min at 30° C. Later 100 μl of the enzyme-inhibitor pre-incubation solution was added to respective wells in a 96 well plate. Each concentration of the inhibitor was tested in triplicates.
The rate of change in UV absorbance (in presence of various concentrations of the inhibitor) was measured at 385 nm, with respect to wells containing only 0.5 mM substrate in 45 mM phosphate buffer as blank at every 10 min for 2 hours after adding enzyme-inhibitor mixture to wells containing substrate solution.

T1 sequence (P22411 whole entry): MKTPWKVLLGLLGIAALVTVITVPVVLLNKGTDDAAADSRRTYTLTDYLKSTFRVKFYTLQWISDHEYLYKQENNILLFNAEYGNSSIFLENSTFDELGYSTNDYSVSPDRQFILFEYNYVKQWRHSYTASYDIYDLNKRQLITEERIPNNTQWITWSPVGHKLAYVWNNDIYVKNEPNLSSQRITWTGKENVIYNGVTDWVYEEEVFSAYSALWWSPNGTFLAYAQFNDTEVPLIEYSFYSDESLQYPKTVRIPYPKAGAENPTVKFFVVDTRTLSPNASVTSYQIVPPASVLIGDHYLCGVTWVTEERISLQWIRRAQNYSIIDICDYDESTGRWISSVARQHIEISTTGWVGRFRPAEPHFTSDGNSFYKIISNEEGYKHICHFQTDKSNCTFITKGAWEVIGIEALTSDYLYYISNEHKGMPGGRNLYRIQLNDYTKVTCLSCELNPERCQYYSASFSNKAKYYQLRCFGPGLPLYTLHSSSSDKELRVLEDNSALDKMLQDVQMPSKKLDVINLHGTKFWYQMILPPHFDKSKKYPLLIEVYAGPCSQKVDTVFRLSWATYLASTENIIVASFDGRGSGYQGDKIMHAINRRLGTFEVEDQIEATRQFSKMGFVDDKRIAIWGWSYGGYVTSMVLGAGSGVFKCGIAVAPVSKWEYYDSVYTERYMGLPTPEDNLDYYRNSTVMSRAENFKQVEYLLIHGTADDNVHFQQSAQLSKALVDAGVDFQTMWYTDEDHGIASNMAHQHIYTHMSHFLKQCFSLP

IC50 | Compound
6.43 ± 0.15 µM | CC1CCC(N(CC(=O)N2CSCC2C#N)NC2CCN(C(C)C)CC2)CC1 (stereo not drawn) [Compound No. 54, 3-[1-Oxo-2-[1-(4-methylcyclohexyl)-2-(1-isopropyl-4-piperidinyl)]hydrazino]ethyl-4-cyanothiazolidine]
2.7 ± 0.16 µM | Cc1ccc(S(=O)(=O)N2CCC(N(N)CC(=O)N3CSCC3C#N)CC2)cc1 (stereo not drawn) [Compound No. 55, 3-[1-Oxo-2-(1-(1-(4-methylphenylsulphonyl)-4-piperidinyl)-hydrazino)]ethyl-4-cyanothiazolidine trifluoroacetate]
44.2 ± 1.36 µM | Cc1ccc(S(=O)(=O)N2CCC(NN(C)CC(=O)N3CSCC3C#N)CC2)cc1 (stereo not drawn) [Compound No. 56, 3-[1-Oxo-2-[1-methyl-2-(1-(4-methylphenylsulphonyl)-piperidin-4-yl)]hydrazino]ethyl-4-cyanothiazolidine trifluoroacetate]
4.77 ± 0.41 µM | N#CC1CSCN1C(=O)CN(N)C1CCN(Cc2cccnc2)CC1 (stereo not drawn) [Compound No. 57, 3-[1-Oxo-2-(1-(1-(3-pyridinemethyl)-4-piperidinyl) hydrazino)]ethyl-4-cyanothiazolidine tris trifluoroacetate]
17.1 ± 0.3 µM | CN(CC(=O)N1CSCC1C#N)NC1CCN(Cc2ccc(C#N)cc2)CC1 (stereo not drawn) [Compound No. 58, 3-[1-Oxo-2-[1-methyl-2-(1-(4-cyanophenylmethyl)piperidin-4-yl)]hydrazino]ethyl-4-cyanothiazolidine bis trifluoroacetate]
9.27 ± 0.42 µM | CN(CC(=O)N1CSCC1C#N)NC1CCN(Cc2cccnc2)CC1 (stereo not drawn) [Compound No. 59, 3-[1-Oxo-2-[1-methyl-2-(1-(3-pyridinylmethyl)-piperidin-4-yl)]hydrazino]ethyl-4-cyanothiazolidine tris trifluoroacetate]
0.69 ± 0.03 µM | CCCC1CCC(N(N)CC(=O)N2CSCC2C#N)CC1 (stereo not drawn) [Compound No. 60, 3-[1-Oxo-2-(1-(4-npropylcyclohexyl) hydrazino)]ethyl-4-cyanothiazolidine trifluoro acetate]
0.7 ± 0.03 µM | N#CC1CSCN1C(=O)CN(N)C1CCN(Cc2ccc([N+](=O)[O-])cc2)CC1 (stereo not drawn) [Compound No. 61, 3-[1-Oxo-2-(1-(1-(4-nitrophenylmethyl)-piperidin-4-yl) hydrazino]ethyl-4-cyanothiazolidine trifluoroacetate]
1.54 ± 0.34 µM | N#CC1CSCN1C(=O)CN(N)C1CCN(S(=O)(=O)c2ccc(Cl)cc2)CC1 (stereo not drawn) [Compound No. 62, 3-[1-Oxo-2-[1-(1-(4-chlorophenylsulphonyl)-piperidin-4-yl)]hydrazino]ethyl-4-cyanothiazolidine trifluoroacetate]
0.73 ± 0.02 µM | N#CC1CSCN1C(=O)CN(N)C12CCC(CC1)C2 (stereo not drawn) [Compound No. 63, 3-[1-Oxo-2-(1-(1-norcamphoranyl) hydrazino)]ethyl-4-cyanothiazolidine trifluoroacetate]
0.34 ± 0.07 µM | CCCC1CCC(N(N)CC(=O)N2CSCC2C#N)CC1 (stereo not drawn) [Compound No. 64, 3-[1-Oxo-2-(1-(4-npropylcyclohexyl)hydrazino)]ethyl-4-cyanothiazolidine trifluoroacetate]
0.87 ± 0.06 µM | CC1CCC(C(=O)N2CCC(N(N)CC(=O)N3CSCC3C#N)CC2)CC1 (stereo not drawn) [Compound No. 65, 3-[1-Oxo-2-[1-(1-(4-methylcyclohexylcarbonyl)-piperidin-4-yl)]hydrazino]ethyl-4-cyanothiazolidine trifluoroacetate]
1.53 ± 0.01 µM | CC(=O)N1CCC(N(N)CC(=O)N2CSCC2C#N)CC1 (stereo not drawn) [Compound No. 66, 3-[1-Oxo-2-(1-(1-acetyl)-piperidin-4-yl)hydrazino]ethyl-4-cyanothiazolidine trifluoroacetate]
72.5 ± 7.05 µM | CC1CCC(N(N)CC(=O)N2CS(=O)(=O)CC2C#N)CC1 (stereo not drawn) [Compound No. 67, 1,1-Dioxo-3-[1-oxo-2-(1-(4-methylcyclohexyl)hydrazino)]ethyl-4-cyanothiazolidine trifluoroacetate]
45.3 ± 3.03 µM | CC1CCC(NN(C)CC(=O)N2CSCC2C#N)CC1 (stereo not drawn) [Compound No. 68, 3-[1-Oxo-2-(1-methyl-2-(4-methylcyclohexyl) hydrazino)]ethyl-4-cyanothiazolidine]
69 ± 10.1 µM | CC1CCC(NN(C)CC(=O)N2CSCC2C#N)CC1 (stereo not drawn) [Compound No. 69, 3-[1-Oxo-2-(1-methyl-2-(4-methylcyclohexyl) hydrazino)]ethyl-4-cyanothiazolidine]
1.79 ± 0.12 µM | N#CC1CSCN1C(=O)CN(N)C1CCN(C(=O)c2cccc(Cl)c2Cl)CC1 (stereo not drawn) [Compound No. 70, 3-[1-Oxo-2-(1-(1-(2,3-dichlorophenylcarbonyl)-piperidin-4-yl) hydrazino)]ethyl-4-cyanothiazolidine trifluoroacetate]
86.2 ± 5.3 µM | CN(CC(=O)N1CSCC1C#N)NC1CCN(S(=O)(=O)c2ccc(Cl)cc2)CC1 (stereo not drawn) [Compound No. 71, 3-[1-Oxo-2-[1-methyl-2-(1-(4-chlorophenylsulphonyl)-piperidin-4-yl)]-hydrazino]ethyl-4-cyanothiazolidine]
12.1 ± 0.13 µM | N#CC1CSCN1C(=O)CN(N)C1CCNCC1 (stereo not drawn) [Compound No. 72, 3-[1-Oxo-2-(1-(4-piperidinyl) hydrazino)]ethyl-4-cyanothiazolidine bis trifluoroacetate]
48.9 ± 1.81 µM | N#CC1CCCN1C(=O)CN(N)C1CCN(S(=O)(=O)c2ccc(Cl)cc2)CC1 (stereo not drawn) [Compound No. 73, [1-Oxo-2-(1-(1-(4-chlorophenylsulphonyl)-piperidin-4-yl)-hydrazino)]ethyl-2-cyanopyrrolidine trifluoroacetate]
97.7 ± 13.1 µM | CC(=O)NN(CC(=O)N1CSCC1C#N)C1CCC(C)CC1 (stereo not drawn) [Compound No. 74, 3-[1-Oxo-2-(1-(4-methylcyclohexyl)-2-acetyl) hydrazino]ethyl-4-cyanothiazolidine]
0.31 ± 0.05 µM | N#CC1CSCN1C(=O)CN(N)C12CC3CC(CC(C3)C1)C2 (stereo not drawn) [Compound No. 75, 3-[1-Oxo-2-(1-(1-adamantanyl) hydrazino)]ethyl-4-cyanothiazolidine trifluoroacetate]
4.15 ± 0.29 µM | CC(C)(C)C(=O)N1CCC(N(N)CC(=O)N2CSCC2C#N)CC1 (stereo not drawn) [Compound No. 76, 3-[1-Oxo-2-(1-(1-(tert-butylcarbonyl)-piperidin-4-yl) hydrazino)]ethyl-4-cyanothiazolidine trifluoroacetate]
0.67 ± 0.06 µM | N#CC1CSCN1C(=O)CN(N)C1CCN(c2ccc(C(F)(F)F)cn2)CC1 (stereo not drawn) [Compound No. 77, 3-[1-Oxo-2-(1-(1-(5-trifluoromethyl-2-pyridinyl)-piperidin-4-yl) hydrazino)]ethyl-4-cyano thiazolidine bis trifluoroacetate]
0.25 ± 0.02 µM | CS(=O)(=O)NC1CCC(N(N)CC(=O)N2CSCC2C#N)CC1 (stereo not drawn) [Compound No. 78, 3-[1-Oxo-2-(1-(1-methanesulphonylamino-4-cyclohexyl) hydrazino)]ethyl-4-cyanothiazolidine trifluoroacetate]
0.92 ± 0.03 µM | CC1CC(N(N)CC(=O)N2CSCC2C#N)CC(C)(C)C1 (stereo not drawn) [Compound No. 79, 3-[1-Oxo-2-(1-(3,3,5-trimethylcyclohexyl)-hydrazino)]ethyl-4-cyanothiazolidine trifluoroacetate]
2.27 ± 0.19 µM | CCNN(CC(=O)N1CSCC1C#N)C(C)C (stereo not drawn) [Compound No. 80, 3-[1-Oxo-2-(1-isopropyl-2-ethyl)-hydrazino]-ethyl-4-cyanothiazolidine trifluoroacetate]
